Several values for one entry are separate records, joined by “and”; a condition that tells them apart may be missing. Identical values can stand only once. Toxic doses and inconclusive results are not listed. Numbered stars: 1 amine (or outer) side, 2 acyl side, 3 side chain; on linkers, the order of the positions; unused ones are H or OH. Bridge positions count the residues as written; N and C are the ends. Square brackets hold non-standard residues; d marks the D form. Peptide text beside a SMILES is read from it. I, II: the chains in the order shown. Actinocin(1to9) = Cc1c2oc3c(C)ccc(C(=O)[*:2])c3nc-2c(C(=O)[*:1])c(N)c1=O; NMeV = CN[CH](C(=O)O)C(C)C; Aze = O=C(O)[CH]1CCN1; Sar = CNCC(=O)O
Tested on: P388 leukemia ip, CD2F1 mice, survival T/C
Test: NCI In Vivo Anticancer Drug Screen. Data for tumor model P388 Leukemia (intraperitoneal) in CD2F1 (CDF1) mice
Details: endpoint: median survival time, higher = longer survival
How it was run: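 Mice carrying the transplanted tumor received test compound or vehicle. Survival was recorded in each group, and the value is the treated-group measurement divided by that of the vehicle-treated control group.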

[1] = dose: 12.5 mg/kg/injection, schedule: Q01DX009 (ip), vehicle: saline with Tween-80
[2] = dose: 25.0 mg/kg/injection, schedule: Q01DX009 (ip), vehicle: saline with Tween-80
[3] = dose: 50.0 mg/kg/injection, schedule: Q01DX009 (ip), vehicle: saline with Tween-80
[4] = dose: 60.0 mg/kg/injection, schedule: Q01DX005 (ip), vehicle: saline with Tween-80
[5] = dose: 120.0 mg/kg/injection, schedule: Q01DX005 (ip), vehicle: saline with Tween-80
[6] = dose: 240.0 mg/kg/injection, schedule: Q01DX005 (ip), vehicle: saline with Tween-80
[7] = dose: 50.0 mg/kg/injection, schedule: Q01DX005 (ip), vehicle: Klucel (hydroxypropylcellulose) (HPC)
[8] = dose: 100.0 mg/kg/injection, schedule: Q01DX005 (ip), vehicle: Klucel (hydroxypropylcellulose) (HPC)
[9] = dose: 200.0 mg/kg/injection, schedule: Q01DX005 (ip), vehicle: Klucel (hydroxypropylcellulose) (HPC)

## Cc1c2oc3c(C)ccc(C(=O)NC4C(=O)NC(C(C)C)C(=O)N5CCCC5C(=O)N(C)CC(=O)N(C)C(C(C)C)C(=O)OC4C)c3nc-2c(C(=O)NC2C(=O)NC(C(C)C)C(=O)N3CCC3C(=O)N(C)CC(=O)N(C)C(C(C)C)C(=O)OC2C)c(N)c1=O (configuration not stated) (I: TV[Aze][Sar][NMeV] / II: TVP[Sar][NMeV]; ester I:1-I:C, II:1-II:C; linker I:N-II:N via Actinocin(1to9); configuration not given here)
dose: 0.05 mg/kg/injection, schedule: Q01DX009 (ip), vehicle: water
  T/C: 214 % of control
dose: 0.08 mg/kg/injection, schedule: Q04DX003 (ip), vehicle: saline
  T/C: 96 % of control
dose: 0.15 mg/kg/injection, schedule: Q04DX003 (ip), vehicle: saline
  T/C: 102 % of control
dose: 0.3 mg/kg/injection, schedule: Q04DX003 (ip), vehicle: saline
  T/C: 105 % of control
dose: 12.5 micrograms/kg/injection, schedule: Q01DX009 (ip), vehicle: saline
  T/C: 123 % of control
dose: 12.5 micrograms/kg/injection, schedule: Q01DX009 (ip), vehicle: water
  T/C: 167 % of control
dose: 19.4 micrograms/kg/injection, schedule: Q01DX009 (ip), vehicle: saline + alcohol
  T/C: 150 % of control
dose: 25.0 micrograms/kg/injection, schedule: Q01DX009 (ip), vehicle: water
  T/C: 200 % of control
dose: 32.4 micrograms/kg/injection, schedule: Q01DX009 (ip), vehicle: saline + alcohol
  T/C: 165 % of control
dose: 50.0 micrograms/kg/injection, schedule: Q01DX009 (ip), vehicle: saline
  T/C: 155 % of control
dose: 50.0 micrograms/kg/injection, schedule: Q01DX009 (ip), vehicle: water
  T/C: 266 % of control
dose: 54.0 micrograms/kg/injection, schedule: Q01DX009 (ip), vehicle: saline + alcohol
  T/C: 177 % of control
dose: 90.0 micrograms/kg/injection, schedule: Q01DX009 (ip), vehicle: saline + alcohol
  T/C: 186 % of control
dose: 100.0 micrograms/kg/injection, schedule: Q01DX009 (ip), vehicle: saline
  T/C: 171 % of control
dose: 100.0 micrograms/kg/injection, schedule: Q01DX009 (ip), vehicle: water
  T/C: 89 % of control
dose: 150.0 micrograms/kg/injection, schedule: Q01DX009 (ip), vehicle: saline + alcohol
  T/C: 238 % of control
dose: 200.0 micrograms/kg/injection, schedule: Q01DX009 (ip), vehicle: saline
  T/C: 250 % of control
dose: 250.0 micrograms/kg/injection, schedule: Q01DX009 (ip), vehicle: saline + alcohol
  T/C: 100 % of control
dose: 400.0 micrograms/kg/injection, schedule: Q01DX009 (ip), vehicle: saline
  T/C: 86 % of control

## Fc1ccc(NC(=S)SCc2ccccc2)cc1F
dose: 50.0 mg/kg/injection, schedule: Q01DX009 (ip), vehicle: saline
  T/C: 100 % of control
dose: 100.0 mg/kg/injection, schedule: Q01DX009 (ip), vehicle: saline
  T/C: 108 % of control
dose: 200.0 mg/kg/injection, schedule: Q01DX009 (ip), vehicle: saline
  T/C: 107 % of control

## [Cr+6].[NH-]CCC[NH-].[NH-]CCC[NH-].[NH-]CCC[NH-]
dose: 200.0 mg/kg/injection, schedule: Q01DX001 (ip), vehicle: saline
  T/C: 95 % of control
dose: 400.0 mg/kg/injection, schedule: Q01DX001 (ip), vehicle: saline
  T/C: 90 % of control

## CC1(C)CCCC12C=NCC2 (configuration not stated)
dose: 6.25 mg/kg/injection, schedule: Q01DX009 (ip), vehicle: saline with Tween-80
  T/C: 99 % of control
[1]
  T/C: 95 % of control
[2]
  T/C: 102 % of control
[3]
  T/C: 101 % of control

## c1ccc2c[s+]ccc2c1
dose: 50.0 mg/kg/injection, schedule: Q01DX009 (ip), vehicle: suspension in saline
  T/C: 90 % of control
dose: 100.0 mg/kg/injection, schedule: Q01DX009 (ip), vehicle: suspension in saline
  T/C: 97 % of control

## Cc1ccc(S(=O)(=O)OCC(COS(=O)(=O)c2ccc(C)cc2)C(C)(C)C)cc1
dose: 50.0 mg/kg/injection, schedule: Q01DX005 (ip), vehicle: saline with Tween-80
  T/C: 101 % of control
dose: 100.0 mg/kg/injection, schedule: Q01DX005 (ip), vehicle: saline with Tween-80
  T/C: 104 % of control
dose: 200.0 mg/kg/injection, schedule: Q01DX005 (ip), vehicle: saline with Tween-80
  T/C: 107 % of control

## CCOc1ccc2c(c1)c(C)cc(C)[n+]2CC
dose: 6.25 mg/kg/injection, schedule: Q04DX003 (ip), vehicle: saline with Tween-80
  T/C: 97 % of control
dose: 12.5 mg/kg/injection, schedule: Q04DX003 (ip), vehicle: saline with Tween-80
  T/C: 99 % of control

## Cc1cc(OCCCCOc2ccc(C#N)cc2)ccc1[N+](=O)[O-]
[4]
  T/C: 96 % of control
[5]
  T/C: 90 % of control
[6]
  T/C: 88 % of control

## CN1C=CC2C(C(=O)O)CC2C1=O (configuration not stated)
dose: 100.0 mg/kg/injection, schedule: Q04DX002 (ip), vehicle: saline
  T/C: 99 % of control
dose: 200.0 mg/kg/injection, schedule: Q04DX002 (ip), vehicle: saline
  T/C: 115 % of control
dose: 400.0 mg/kg/injection, schedule: Q04DX002 (ip), vehicle: saline
  T/C: 109 % of control

## CC1(C)C(=S)C(C)(C)C1=S
[7]
  T/C: 104 % of control
[8]
  T/C: 104 % of control
[9]
  T/C: 108 % of control

## CCCC(C)(C)c1cc(C(C)C)cc(C(C)(C)CCC)c1O
dose: 12.5 mg/kg/injection, schedule: Q01DX009 (ip), vehicle: other
  T/C: 100 % of control
dose: 25.0 mg/kg/injection, schedule: Q01DX009 (ip), vehicle: other
  T/C: 100 % of control
dose: 25.0 mg/kg/injection, schedule: Q01DX009 (ip), vehicle: saline + Tween-80 + alcohol
  T/C: 103 % of control
dose: 50.0 mg/kg/injection, schedule: Q01DX009 (ip), vehicle: other
  T/C: 106 % of control
dose: 50.0 mg/kg/injection, schedule: Q01DX009 (ip), vehicle: saline + Tween-80 + alcohol
  T/C: 101 % of control
dose: 100.0 mg/kg/injection, schedule: Q01DX009 (ip), vehicle: other
  T/C: 112 % of control
dose: 100.0 mg/kg/injection, schedule: Q01DX009 (ip), vehicle: saline + Tween-80 + alcohol
  T/C: 100 % of control
dose: 200.0 mg/kg/injection, schedule: Q01DX009 (ip), vehicle: saline + Tween-80 + alcohol
  T/C: 113 % of control

## Nc1nc[nH]c(=O)c1NC=O
dose: 100.0 mg/kg/injection, schedule: Q04DX003 (ip), vehicle: saline
  T/C: 120 % of control
dose: 200.0 mg/kg/injection, schedule: Q04DX003 (ip), vehicle: saline
  T/C: 100 % of control
dose: 400.0 mg/kg/injection, schedule: Q04DX003 (ip), vehicle: saline
  T/C: 110 % of control

## O=C1CSC(c2cccc(O)c2)N1c1nncs1 (configuration not stated)
[4]
  T/C: 114 % of control
[5]
  T/C: 107 % of control
[6]
  T/C: 95 % of control

## CNNCCCCC(=O)NC(C)C
dose: 25.0 mg/kg/injection, schedule: Q01DX009 (ip), vehicle: Klucel (hydroxypropylcellulose) (HPC)
  T/C: 97 % of control
dose: 50.0 mg/kg/injection, schedule: Q01DX009 (ip), vehicle: Klucel (hydroxypropylcellulose) (HPC)
  T/C: 98 % of control
dose: 100.0 mg/kg/injection, schedule: Q01DX009 (ip), vehicle: Klucel (hydroxypropylcellulose) (HPC)
  T/C: 97 % of control

## O=C(NCCCl)Oc1ccc(Cl)cc1Cl
dose: 12.5 mg/kg/injection, schedule: Q01DX005 (ip), vehicle: Klucel (hydroxypropylcellulose) (HPC)
  T/C: 100 % of control
dose: 25.0 mg/kg/injection, schedule: Q01DX005 (ip), vehicle: Klucel (hydroxypropylcellulose) (HPC)
  T/C: 106 % of control
[7]
  T/C: 108 % of control and 113 % of control

## CC1=C/C(=C\C(=O)N2CCCCC2)N=C(N[N+](=O)[O-])N1
dose: 50.0 mg/kg/injection, schedule: Q01DX009 (ip), vehicle: distilled water + Tween-80 + alcohol
  T/C: 111 % of control
dose: 100.0 mg/kg/injection, schedule: Q01DX009 (ip), vehicle: distilled water + Tween-80 + alcohol
  T/C: 115 % of control
dose: 200.0 mg/kg/injection, schedule: Q01DX009 (ip), vehicle: distilled water + Tween-80 + alcohol
  T/C: 105 % of control

## O=c1[nH]c(=S)[nH]c2c1CN(CCCN1CCN(CCCN3CNc4[nH]c(=S)[nH]c(=O)c4C3)CC1)CN2
[7]
  T/C: 96 % of control
[8]
  T/C: 94 % of control
[9]
  T/C: 95 % of control

## CCN(CC)c1ccc2cc(-c3nc4ccccc4[nH]3)c(=O)oc2c1
[1]
  T/C: 96 % of control
[2]
  T/C: 95 % of control
[3]
  T/C: 88 % of control and 98 % of control
dose: 100.0 mg/kg/injection, schedule: Q01DX009 (ip), vehicle: saline with Tween-80
  T/C: 95 % of control

## Cc1c(-c2ccccc2)n[nH]c1-c1[nH]nc(-c2ccccc2)c1C
dose: 60.0 mg/kg/injection, schedule: Q01DX005 (ip), vehicle: Klucel (hydroxypropylcellulose) (HPC)
  T/C: 93 % of control
dose: 120.0 mg/kg/injection, schedule: Q01DX005 (ip), vehicle: Klucel (hydroxypropylcellulose) (HPC)
  T/C: 94 % of control
dose: 240.0 mg/kg/injection, schedule: Q01DX005 (ip), vehicle: Klucel (hydroxypropylcellulose) (HPC)
  T/C: 93 % of control

— PubChem BioAssay AID330 (DTP/NCI, 2004)
